Where two headings read alike, the source gives them in different places.
What was measured:
[1] = tested on: U2932 cells; test: Real Time Glo viability assay, Betalutin and cell cycle inhibitors (Example 2); format: cell-based, human; conditions: for viability at 0.1 µM / viability at 1 µM: Homo sapiens; for viability at 0.1 µM: U2932, U2932, drug 100 nM
Method: (§1) Cells were split twice a week 1:3-1:5 depending on cell density. […] Real Time Glo was purchased from Promega. 384 well plates were purchased from Greiner Bio-One.
(§2) Cells were treated for 18-20 h with Betalutin at a final concentration of 1 μg/ml and 2 μg/ml in 6-well cell culture plates with shaking. After treatment, PBS was added to the cells, and the cells pelleted. Cells were first resuspended in 1 ml PBS, then washed twice in PBS and finally diluted in growth medium at the desired concentration. All cell lines were treated at a cell concentration of 2.5*10^6 cells/ml.
(§3) Regardless of cell number the culturing volume was 25 μl. For Real Time Glo, the Cell Viability Substrate and NanoLuc® Enzyme were diluted 1:500 in growth medium, and 25 μL of diluted reagents added to each well. All reagents were equilibrated to 37° C. Cells were incubated with the reaction mix for 1 h at 37° C. before the first measurement of luminescence. Measurements were repeated as often as required within 72 h after adding the reagents. Digitonin was added to cells at 200 μg/ml to record background luminescence of dead cells. A Tecan SPARK 10M plate reader was used to measure luminescence, with an integration time set to 1 sec.
(§4) Growth inhibition was calculated by dividing the luminescence signal of the treated cells by the luminescence signal of the control cells for each day of measurement after start of treatment [Table 1].
(§5) To evaluate effects of the drugs alone [(−)Betalutin] and their combination with Betalutin [(+)Betalutin], we calculated the Z-score for each sample (ZdrugX=1-(+)BetalutindrugX/(−)BetalutindrugX), where (+)BetalutindrugX and (−) BetalutindrugX are the measured luminescence intensity values for drug X in presence and absence of Betalutin, respectively. The calculation of Z-score values separately for each plate enabled comparison of results across plates, despite variations between the plates in overall signal intensity.

[2] = tested on: RIVA cells; test: as above; format: cell-based, human; conditions: for viability at 0.1 µM / viability at 1 µM: Homo sapiens, read-out: Growth inhibition (signal treated/control; 1 = no change); for viability at 0.1 µM: drug 100 nM
Method: as §1, §2, §3, §4, §5

[3] = (+)Betalutin, Dy3, read-out: Growth inhibition (signal treated/control; 1 = no change)
[4] = (+)Betalutin, Dy4, read-out: Growth inhibition (signal treated/control; 1 = no change)
[5] = (+)Betalutin, Dy5, read-out: Growth inhibition (signal treated/control; 1 = no change)
[6] = (+)Betalutin, Dy6, read-out: Growth inhibition (signal treated/control; 1 = no change)
[7] = (−)Betalutin, Dy3, read-out: Growth inhibition (signal treated/control; 1 = no change)
[8] = (−)Betalutin, Dy4, read-out: Growth inhibition (signal treated/control; 1 = no change)
[9] = (−)Betalutin, Dy5, read-out: Growth inhibition (signal treated/control; 1 = no change)
[10] = (−)Betalutin, Dy6, read-out: Growth inhibition (signal treated/control; 1 = no change)
[11] = U2932, U2932, drug 1 μM, (+)Betalutin, Dy3, read-out: Growth inhibition (signal treated/control; 1 = no change)
[12] = U2932, U2932, drug 1 μM, (+)Betalutin, Dy4, read-out: Growth inhibition (signal treated/control; 1 = no change)
[13] = U2932, U2932, drug 1 μM, (+)Betalutin, Dy5, read-out: Growth inhibition (signal treated/control; 1 = no change)
[14] = U2932, U2932, drug 1 μM, (+)Betalutin, Dy6, read-out: Growth inhibition (signal treated/control; 1 = no change)
[15] = U2932, U2932, drug 1 μM, (−)Betalutin, Dy3, read-out: Growth inhibition (signal treated/control; 1 = no change)
[16] = U2932, U2932, drug 1 μM, (−)Betalutin, Dy4, read-out: Growth inhibition (signal treated/control; 1 = no change)
[17] = U2932, U2932, drug 1 μM, (−)Betalutin, Dy5, read-out: Growth inhibition (signal treated/control; 1 = no change)
[18] = U2932, U2932, drug 1 μM, (−)Betalutin, Dy6, read-out: Growth inhibition (signal treated/control; 1 = no change)
[19] = RIVA, drug 1 μM, +Betalutin, Dy3
[20] = RIVA, drug 1 μM, +Betalutin, Dy4
[21] = RIVA, drug 1 μM, +Betalutin, Dy5
[22] = RIVA, drug 1 μM, +Betalutin, Dy6
[23] = RIVA, drug 1 μM, −Betalutin, Dy3
[24] = RIVA, drug 1 μM, −Betalutin, Dy4
[25] = RIVA, drug 1 μM, −Betalutin, Dy5
[26] = RIVA, drug 1 μM, −Betalutin, Dy6

| SMILES | viability at 0.1 µM [1, 3] [%] | viability at 0.1 µM [1, 4] [%] | viability at 0.1 µM [1, 5] [%] | viability at 0.1 µM [1, 6] [%] | viability at 0.1 µM [1, 7] [%] | viability at 0.1 µM [1, 8] [%] | viability at 0.1 µM [1, 9] [%] | viability at 0.1 µM [1, 10] [%] | viability at 1 µM [1, 11] [%] | viability at 1 µM [1, 12] [%] | viability at 1 µM [1, 13] [%] | viability at 1 µM [1, 14] [%] | viability at 1 µM [1, 15] [%] | viability at 1 µM [1, 16] [%] | viability at 1 µM [1, 17] [%] | viability at 1 µM [1, 18] [%] | Synergy for the combination with Betalutin ([1]; U2932, drug 100 nM) | Synergy for the combination with Betalutin ([1]; U2932, drug 1 μM) | viability at 0.1 µM ([2]; RIVA, +Betalutin, Dy3) [%] | viability at 0.1 µM ([2]; RIVA, +Betalutin, Dy4) [%] | other results |
| --- | --- | --- | --- | --- | --- | --- | --- | --- | --- | --- | --- | --- | --- | --- | --- | --- | --- | --- | --- | --- | --- |
| Cc1csc(-c2nnc(Nc3ccc(Oc4ncccc4-c4ccnc(N)n4)cc3)c3ccccc23)c1 [AMG 900] | 89 | 78 | 77 | 52 | 96 | 97 | 92 | 72 | 77 | 77 | 80 | 58 | 83 | 96 | 96 | 81 | Bliss + Z-score | Z-score | 22 | 16 | viability at 0.1 µM ([2]; RIVA, +Betalutin, Dy5): 9%; viability at 0.1 µM ([2]; RIVA, +Betalutin, Dy6): 8%; viability at 0.1 µM ([2]; RIVA, −Betalutin, Dy3): 82%; viability at 0.1 µM ([2]; RIVA, −Betalutin, Dy4): 85%; viability at 0.1 µM ([2]; RIVA, −Betalutin, Dy5): 65%; viability at 0.1 µM ([2]; RIVA, −Betalutin, Dy6): 51%; viability at 1 µM [2, 19]: 9%; viability at 1 µM [2, 20]: 8%; viability at 1 µM [2, 21]: 5%; viability at 1 µM [2, 22]: 4%; viability at 1 µM [2, 23]: 60%; viability at 1 µM [2, 24]: 57%; viability at 1 µM [2, 25]: 49%; viability at 1 µM [2, 26]: 40% |
| NC(=O)Nc1cc(-c2cccc(F)c2)sc1C(=O)N[C@H]1CCCNC1 [AZD7762] |  |  |  |  |  |  |  |  |  |  |  |  |  |  |  |  | Bliss + Z-score |  |  |  | viability at 1 µM ([1]; U2932, read-out: Growth inhibition (signal treated/control; 1 = no change)): 4%; Growth inhibition (signal treated/control; 1 = no change) ([1]; human): 0.03; viability at 1 µM [2]: 3%; Growth inhibition (signal treated/control; 1 = no change) ([2]; human): 0.34 |
| Cc1nc(N)sc1-c1ccnc(Nc2ccc(N3CCOCC3)cc2)n1 [CYC116] | 92 | 94 | 80 | 75 | 94 | 97 | 106 | 121 | 72 | 82 | 74 | 56 | 85 | 89 | 83 | 61 | Bliss + Z-score | Z-score | 13 | 10 | viability at 0.1 µM ([2]; RIVA, +Betalutin, Dy5): 6%; viability at 0.1 µM ([2]; RIVA, +Betalutin, Dy6): 6%; viability at 0.1 µM ([2]; RIVA, −Betalutin, Dy3): 93%; viability at 0.1 µM ([2]; RIVA, −Betalutin, Dy4): 94%; viability at 0.1 µM ([2]; RIVA, −Betalutin, Dy5): 114%; viability at 0.1 µM ([2]; RIVA, −Betalutin, Dy6): 92%; viability at 1 µM [2, 19]: 22%; viability at 1 µM [2, 20]: 20%; viability at 1 µM [2, 21]: 14%; viability at 1 µM [2, 22]: 14%; viability at 1 µM [2, 23]: 62%; viability at 1 µM [2, 24]: 78%; viability at 1 µM [2, 25]: 70%; viability at 1 µM [2, 26]: 65% |
